Experimental data: the NIST ThermoML archive (doi:10.1016/j.fluid.2013.06.007)
± gives the expanded uncertainty stated by the source.

Experiments:
[1] = 298.2 K; 101.33 kPa; Liquid; Vibrating tube method
[2] = refractive index (Na D-line) (dimensionless); settings: 298.2 K; 101.33 kPa; Liquid; Standard Abbe refractometry

SMILES | mass density [1] | refractive index [2]
CCCCCO [pentan-1-ol] | 811.288 ± 0.63 kg/m3 | 1.4078 ± 0.0004
CCCCCCO [hexan-1-ol] | 815.167 ± 0.83 kg/m3 | 1.416 ± 0.0005
CC(O)C(=O)O (stereo not drawn) [2-hydroxypropanoic acid] | 1199.91 ± 87 kg/m3 | 1.4243 ± 0.003
CCCCO [butan-1-ol] | 805.877 ± 0.63 kg/m3 | 1.3972 ± 0.0004
CCCCCCCO [heptan-1-ol] | 818.915 ± 0.63 kg/m3 | 1.4224 ± 0.0004
O [water] |  | 1.3325 ± 0.0004
CCC(C)O (stereo not drawn) [butan-2-ol] | 802.362 ± 0.63 kg/m3 | 1.394 ± 0.0004
